Reference: publication PMC12736255, “Reinvestigating Pyrrol-2-One-Based Compounds: From Antimicrobial Agents to Promising Antitumor Candidates” (Pharmaceuticals, 2025)

Tests used:
[1] = test system: osteosarcoma (HOS and MG-63) cells; assay: CellTiter-Glo 2.0 cytotoxicity, osteosarcoma; type: cell-based, human; conditions: osteosarcoma cell lines, 10 and 50 µM, 24 h
Method: (§1) Cytotoxicity of compounds was assessed using the CellTiter-Glo® 2.0 Assay (Promega, Madison, WI, USA) on human gingival fibroblasts (HGF), osteosarcoma (HOS and MG-63) and glioblastoma (LN-229 and U-118MG) cells, according to the manufacturer’s instructions. HGF, HOS, MG-63 and U-118MG cells were purchased from Cytion GmbH, Eppelheim, Germany, and LN-229 (CRL-2611) from the American Type Culture Collection (ATCC), Manassas, VA, USA. Cells were seeded (50,000 cells/mL—HGF, 100,000 cells/mL—tumor cells) into 96-well opaque white tissue culture-treated plates and allowed to adhere overnight in αMEM medium with 10% fetal bovine serum and 1% antibiotic-antimycotic (all from PAN—Biotech GmbH, Aidenbach, Germany). Cells were incubated with compounds (10 or 50 µM) for 24 h, then CellTiter-Glo® reagent was added and luminescence was recorded using a FLUOstar® Omega microplate reader (BMG LABTECH, Ortenberg, Germany). The experiments were carried out in triplicate, and the viability of treated cells was expressed as a percentage of the viability of control cells (untreated). Data were represented as means ± standard deviations. Stock solutions of compounds were prepared in DMSO, then diluted in complete cell culture media. […] Data were analyzed with independent two-tailed (Student’s) t-test, considering p < 0.05 statistically significant.

[2] = test system: human gingival fibroblasts (HGF); assay: CellTiter-Glo 2.0 cytotoxicity, normal fibroblasts; type: cell-based; conditions: 50 µM, 24 h
Method: as §1

[3] = CellTiter-Glo 2.0 cytotoxicity, normal fibroblasts; type: cell-based, human; conditions: human, human gingival fibroblasts (HGF), read-out: cell viability
Method: as §1

Row | Structure (SMILES) | cytotoxicity (activity in words) [1] | cytotoxicity (activity in words) [2] | viability at 24 h, 50 µM [3] [%]
1 | O=C1C(Nc2ccc(I)cc2)=CC(c2ccc(O)cc2)N1c1ccc(I)cc1 (stereo not shown) [3g] | notable activity |  | 
2 | O=C1C(Nc2ccc(I)cc2)=CC(c2ccc(O)c(O)c2)N1c1ccc(I)cc1 (stereo not shown) [3h] | notable activity | acute cytotoxicity | 
3 | COc1cc(OC)c(C2C=C(Nc3ccc(I)cc3)C(=O)N2c2ccc(I)cc2)cc1OC (stereo not shown) [3k] |  |  | 64
